According to patent US10294202B2, “Pyrrolidinones as herbicides” (FMC Corporation, priority 2013, dated 2019):

What was measured:
barnyardgrass [1] = assay: Test A pre-/postemergence herbicide test; format: in vivo, Echinochloa crus-galli; details: for Barnyardgrass plant response rating: Preemergence, visual rating on 0 to 100 scale (0 no effect, 100 complete control)
In short: (§1)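 Visual injury ratings, 0 = no effect, 100 = complete control, taken ~10 days after treatment against untreated greenhouse controls. Preemergence: directed soil spray onto seeded loam/sand pots. Postemergence: spray onto plants at one- to two-leaf stage, 2–10 cm tall.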

crabgrass, large = assay: Test A pre-/postemergence herbicide test; format: in vivo, Digitaria sanguinalis; details: for Crabgrass, Large plant response rating: Preemergence, visual rating on 0 to 100 scale (0 no effect, 100 complete control)
In short: as §1

giant foxtail = assay: Test A pre-/postemergence herbicide test; format: in vivo, Setaria faberii; details: for Foxtail, Giant plant response rating: Preemergence, visual rating on 0 to 100 scale (0 no effect, 100 complete control)
In short: as §1

morningglory = assay: Test A pre-/postemergence herbicide test; format: in vivo, Ipomoea spp.; details: for Morningglory plant response rating: Preemergence, visual rating on 0 to 100 scale (0 no effect, 100 complete control)
In short: as §1

pigweed = assay: Test A pre-/postemergence herbicide test; format: in vivo, Amaranthus retroflexus; details: for Pigweed plant response rating: Preemergence, visual rating on 0 to 100 scale (0 no effect, 100 complete control)
In short: as §1

velvetleaf = assay: Test A pre-/postemergence herbicide test; format: in vivo, Abutilon theophrasti; details: for Velvetleaf plant response rating: Preemergence, visual rating on 0 to 100 scale (0 no effect, 100 complete control)
In short: as §1

wheat = assay: Test A pre-/postemergence herbicide test; format: in vivo, Triticum aestivum; details: for Wheat plant response rating: Preemergence, visual rating on 0 to 100 scale (0 no effect, 100 complete control)
In short: as §1

corn = assay: Test A pre-/postemergence herbicide test; format: in vivo, Zea mays; details: for Corn plant response rating: Preemergence, visual rating on 0 to 100 scale (0 no effect, 100 complete control)
In short: as §1

rice = assay: Test B flooded paddy test; format: in vivo, Oryza sativa; details: 250 g ai/ha, Flood; scale of 0 to 100 where 0 is no effect and 100 is complete control
In short: (§2)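 Plants grown to 2-leaf stage; pots flooded 3 cm above soil and compound applied directly into paddy water, depth held throughout. Visual rating against untreated controls after 13 to 15 days in greenhouse, 0 (no effect) to 100 (complete control).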

sedge, umbrella = assay: Test B flooded paddy test; format: in vivo, Cyperus difformis; details: 250 g ai/ha, Flood; scale of 0 to 100 where 0 is no effect and 100 is complete control
In short: as §2

ducksalad = assay: Test B flooded paddy test; format: in vivo, Heteranthera limosa; details: 250 g ai/ha, Flood; scale of 0 to 100 where 0 is no effect and 100 is complete control
In short: as §2

barnyardgrass [2] = assay: Test B flooded paddy test; format: in vivo, Echinochloa crus-galli; details: 250 g ai/ha, Flood; scale of 0 to 100 where 0 is no effect and 100 is complete control
In short: as §2

[3] = Postemergence, 125 g ai/ha, 0 to 100 scale, 0 no effect, 100 complete control
[4] = Postemergence, 500 g ai/ha, 0 to 100 scale (0 no effect, 100 complete control)
[5] = preemergence, 500 g ai/ha, 0 to 100 scale (0 no effect, 100 complete control)
[6] = preemergence, 500 g ai/ha, 0 to 100 scale

| SMILES | Plant response rating, Barnyardgrass (barnyardgrass [1]; [3]) | Plant response rating, Barnyardgrass (barnyardgrass [1]; [4]) | Barnyardgrass plant response rating (barnyardgrass [1]; 125 g ai/ha) | Plant response rating, Barnyardgrass (barnyardgrass [1]; [5]) | Plant response rating, Crabgrass, Large (crabgrass, large; [3]) | Plant response rating, Crabgrass, Large (crabgrass, large; [4]) | Crabgrass, Large plant response rating (crabgrass, large; 125 g ai/ha) | Plant response rating, Crabgrass, Large (crabgrass, large; [6]) | Plant response rating, Foxtail, Giant (giant foxtail; [3]) | Plant response rating, Foxtail, Giant (giant foxtail; [4]) | Foxtail, Giant plant response rating (giant foxtail; 125 g ai/ha) | Plant response rating, Foxtail, Giant (giant foxtail; [6]) | Plant response rating, Morningglory (morningglory; [3]) | Plant response rating, Morningglory (morningglory; [4]) | Morningglory plant response rating (morningglory; 125 g ai/ha) | Plant response rating, Morningglory (morningglory; [6]) | Plant response rating, Pigweed (pigweed; [3]) | Plant response rating, Pigweed (pigweed; [4]) | Pigweed plant response rating (pigweed; 125 g ai/ha) | Plant response rating, Pigweed (pigweed; [6]) | also measured |
| --- | --- | --- | --- | --- | --- | --- | --- | --- | --- | --- | --- | --- | --- | --- | --- | --- | --- | --- | --- | --- | --- |
| Cc1cccc(NC(=O)C2C(=O)NCC2c2ccc(F)c(F)c2)c1 (stereo not drawn) [Compound 56] | 0 | 50 | 0 | 40 | 50 | 80 | 60 | 90 | 20 | 60 | 20 | 50 | 0 | 0 | 0 | 0 | 0 | 0 | 0 | 0 | Plant response rating, Velvetleaf (velvetleaf; [3]): 0; Plant response rating, Velvetleaf (velvetleaf; [4]): 0; Velvetleaf plant response rating (velvetleaf; 125 g ai/ha): 0; Plant response rating, Velvetleaf (velvetleaf; [6]): 0; Plant response rating, Wheat (wheat; [3]): 0; Plant response rating, Wheat (wheat; [4]): 0; Wheat plant response rating (wheat; 125 g ai/ha): 0; Plant response rating, Wheat (wheat; [6]): 0; Plant response rating, Corn (corn; [3]): 0; Plant response rating, Corn (corn; [4]): 0; Corn plant response rating (corn; 125 g ai/ha): 0; Plant response rating, Corn (corn; [6]): 0; Plant response rating, Rice (rice): 0; Plant response rating, Sedge, Umbrella (sedge, umbrella): 0; Plant response rating, Ducksalad (ducksalad): 0; Plant response rating, Barnyardgrass (barnyardgrass [2]): 0 |
| CC1(C(=O)Nc2cccc(F)c2F)C(=O)NCC1c1ccc(F)c(Cl)c1 (stereo not drawn) [Compound 61] | 0 | 20 | 0 | 0 | 0 | 70 | 0 | 80 | 0 | 30 | 0 | 0 | 0 | 0 | 0 | 0 | 0 | 0 | 0 | 0 | Plant response rating, Velvetleaf (velvetleaf; [3]): 0; Plant response rating, Velvetleaf (velvetleaf; [4]): 0; Velvetleaf plant response rating (velvetleaf; 125 g ai/ha): 0; Plant response rating, Velvetleaf (velvetleaf; [6]): 0; Plant response rating, Wheat (wheat; [3]): 0; Plant response rating, Wheat (wheat; [4]): 0; Wheat plant response rating (wheat; 125 g ai/ha): 0; Plant response rating, Wheat (wheat; [6]): 0; Plant response rating, Corn (corn; [3]): 0; Plant response rating, Corn (corn; [4]): 0; Corn plant response rating (corn; 125 g ai/ha): 0; Plant response rating, Corn (corn; [6]): 0; Plant response rating, Rice (rice): 0; Plant response rating, Sedge, Umbrella (sedge, umbrella): 30; Plant response rating, Ducksalad (ducksalad): 0; Plant response rating, Barnyardgrass (barnyardgrass [2]): 0 |
| O=C1NCC(c2ccc3c(c2)OC(F)(F)O3)C1C(=O)Nc1ccccc1F (stereo not drawn) [Compound 63] | 60 | 80 | 50 | 80 | 80 | 90 | 90 | 90 | 70 | 90 | 70 | 90 | 0 | 0 | 0 | 0 | 0 | 0 | 0 | 0 | Plant response rating, Velvetleaf (velvetleaf; [3]): 0; Plant response rating, Velvetleaf (velvetleaf; [4]): 0; Velvetleaf plant response rating (velvetleaf; 125 g ai/ha): 0; Plant response rating, Velvetleaf (velvetleaf; [6]): 0; Plant response rating, Wheat (wheat; [3]): 0; Plant response rating, Wheat (wheat; [4]): 30; Wheat plant response rating (wheat; 125 g ai/ha): 0; Plant response rating, Wheat (wheat; [6]): 0; Plant response rating, Corn (corn; [3]): 0; Plant response rating, Corn (corn; [4]): 50; Corn plant response rating (corn; 125 g ai/ha): 0; Plant response rating, Corn (corn; [6]): 0; Plant response rating, Rice (rice): 0; Plant response rating, Sedge, Umbrella (sedge, umbrella): 0; Plant response rating, Ducksalad (ducksalad): 60; Plant response rating, Barnyardgrass (barnyardgrass [2]): 20 |
